According to patent US20030181447A1, “3-(Diarylmethylene)-8-azabicyclo[3.2.1]octane derivatives” (priority 2001, published 2003):
Structures can show the parent of a compound that is named as a salt.

Experiments:
[1] = tested on: mouse acetylcholine bromide-induced abdominal constriction; assay: Mouse acetylcholine bromide-induced abdominal constriction assay; type: in vivo; conditions: 150 μmole/Kg p.o., 30 min before 5.5 mg/kg acetylcholine bromide i.p.
Procedure: Mouse Acetylcholine Bromide-Induced Abdominal Constriction Assay
The mouse acetylcholine-induced abdominal constriction assay (as described by Collier et al. in Brit. J. Pharmacol. Chem. Ther., 1968, 32: 295-310 with minor modifications) was used to assess analgesic potency of the compounds of formula (I). The test drugs or appropriate vehicles were administered orally (p.o.) and 30 min later the animal received an intraperitoneal (i.p.) injection of 5.5 mg/kg acetylcholine bromide (Matheson, Coleman and Bell, East Rutherford, N.J.). The mice were then placed in groups of three into glass bell jars and observed for a ten min observation period for the occurrence of an abdominal constriction response (defined as a wave of constriction and elongation passing caudally along the abdominal wall, accompanied by a twisting of the trunk and followed by extension of the hind limbs). For compounds of the present invention, the percent inhibition of this response to a nociceptive stimulus (equated to % analgesia) was calculated as follows: [formula]

Structure (SMILES) | melting point | percent inhibition of abdominal constriction response (% analgesia) [1] [%]
CCNC(=O)c1ccc(C(=C2CC3CCC(C2)N3CCc2ccccc2)c2ccccc2)cc1 (as salt: HCl) [Example 26, N-Ethyl-4-[(8-phenethyl-8-azabicyclo[3.2.1]oct-3-ylidene)phenylmethyl]benzamide] | 296 to 298 °C (dec.) | –
NC(=O)c1ccc(C(=C2CC3CCC(C2)N3CCc2ccccc2)c2ccccc2)cc1 (as salt: hydrochloride) [Example 29, 4-[(8-Phenethyl-8-azabicyclo[3.2.1]oct-3-ylidene)phenylmethyl]benzamide Hydrochloride [1:1].] | 210 to 212 °C | –
CCN(CC)C(=O)c1ccc(C(=C2CC3CCC(C2)N3CCc2ccccc2)c2ccccc2)cc1 (single isomer, unassigned; (+)) (as salt: hydrochloride) [Example 24] | 211 to 212 °C | –
CCN(CC)C(=O)c1ccc(C(=C2CC3CCC(C2)N3CCc2ccccc2)c2ccccc2)cc1 (single isomer, unassigned; (-)) (as salt: hydrochloride) [Example 23] | 210 to 211 °C | –
CCN(CC)C(=O)c1ccc(C(=C2CC3CCC(C2)N3C)c2ccccc2)cc1.Cl [Example 1, N,N-Diethyl-4-[(8-methyl-8-azabicyclo[3.2.1]oct-3-ylidene)phenylmethyl]benzamide Hydrochloride [1:1]] | 145 to 147 °C | 87
CCN(CC)C(=O)c1ccc(C(=C2CC3CCC(C2)N3)c2ccccc2)cc1.Cl [Example 2, N,N-Diethyl-4-[(8-azabicyclo[3.2.1]oct-3-ylidene)phenylmethyl]benzamide Hydrochloride [1:1]] | 128 to 132 °C | –
CCCN1C2CCC1CC(=C(c1ccccc1)c1ccc(C(=O)N(CC)CC)cc1)C2.Cl [Example 18, N,N-Diethyl-4-[(8-propyl-8-azabicyclo[3.2.1]oct-3-ylidene)phenylmethyl]benzamide Hydrochloride [1:1]] | 184 °C | –
CN(C(=O)c1cccc(C(=C2CC3CCC(C2)N3C)c2ccccc2)c1)c1cccc(F)c1.O=C(O)/C=C/C(=O)O [Example 22, N-(3-Fluorophenyl)-N-methyl-3-[(8-methyl-8-azabicyclo[3.2.1]oct-3-ylidene)phenylmethyl]benzamide Fumarate [1:1]] | 122 to 125 °C | –
